What was measured:
Type in all cases: in vivo
[1] = tested on: ICR mice; assay: Pentobarbital sodium subthreshold dose hypnosis test; conditions: mice gavaged 14 days (250 mg/kg samples; GABA 100 mg/kg); pentobarbital sodium 30 mg/kg BW i.p.; animals asleep within 30 min; *p<0.05, **p<0.01 vs blank group
Source text: (§1) • 1. Principle: a pentobarbital sodium subthreshold dose hypnosis test, a sleep latency test and a sleep extension time change test are common test methods for a sleep improvement performance of a health-care food. The method takes a disappearance of a righting reflex as an observation index and is specifically represented as follows: when a mouse is placed on the back to lie, if the mouse cannot turn over for more than 60 s, the righting reflex is considered to disappear, and the mouse falls sleep; if a body position can be righted immediately (within 5 s), the righting reflex is considered to be recovered and the mouse is in a waking state; and a time from the disappearance of the righting reflex to the recovery is an animal sleeping time. • 2. Materials: ICR mice come from the Experimental Animal Center of Zhejiang Academy of Medical Sciences and have the production license number of SCXK (Zhe). The mice are all male, weigh 18 to 22 g and are divided into 10 mice/group. The mice are adapted to the environment in an SPF animal room for 5 to 7 days, wherein environment conditions of the SPF animal room are as follows: a temperature of 20 to 26° C., a humidity of 40% to 70%, and light and shade alternation time of 12 h/12 h. • 3. […]

[2] = tested on: ICR mice; assay: Sleep latency experiment (pentobarbital sodium); conditions: mice gavaged 14 days (250 mg/kg samples; GABA 100 mg/kg); pentobarbital sodium 200 mg/kg BW i.p.; *p<0.05 vs blank group
Source text: as §1

[3] = tested on: ICR mice; assay: Sleep extension time change experiment (pentobarbital sodium); conditions: mice gavaged 14 days (250 mg/kg samples; GABA 100 mg/kg); pentobarbital sodium 30 mg/kg BW i.p.; *p<0.05, **p<0.01 vs blank group
Source text: as §1

Compound: NCCCC(=O)O [Positive control, y-aminobutyric acid]
- Sleeping rate [1]: 90.00** %
- Sleep latency x ± s [2]: 5.60 ± 1.48* min
- Sleeping time x ± s [3]: 92.36 ± 16.67** min
